Reference: US5120828A, “Synthetic polypeptide with laminin activity” (Regents of the University of Minnesota, priority 1989, dated 1992)

Biological target: T1, peptide AC15 (Mus musculus, UniProt P02469)
T1 construct: residues 202-218 from the B1 chain of laminin; The single letter amino acid code for this polypeptide is RIQNLLKITNLRIKFVK; made in house; host or cells: chemical solid-phase (Merrifield) synthesis, no expression host
Test: Heparin/peptide interaction specificity: competition of 3H-heparin binding to coated peptide AC15 by glycosaminoglycans
Conditions: 3 μg per well of peptide AC15 coated; various amounts of non-radioactive glycosaminoglycan; 2 h, 37° C.; FIG. 9
Protocol: To check whether charge was the main factor in the interaction between heparin and peptide AC15 or whether the heparin structure was also critical to this interaction, heparin along with one other sulfated glucosaminoglycan, chondroitin sulfate were used in competition experiments. A standard amount of 3 μg per well of peptide AC15 was coated on 96-well plates as described above. Wells were treated for two hours with 2 mg/ml BSA in wash buffer. Then, a final volume of 50 μl was added to each well, containing a standard amount of ^3 H-heparin (5,000 cpm per well) and various amounts of non-radioactive heparin, and chondroitin sulfate. After incubating for two hours at 37° C., the wells were washed and radioactivity was counted as described above in Example 1.

Row | Substance | competition for the binding of tritiated heparin to peptide AC15
1 | chondroitin sulfate | cannot mimic this effect even at very high concentrations
2 | heparin | able to compete for the binding of tritiated heparin to peptide AC15 at very low concentrations
